From patent publication US10316028B2, “Orexin receptor antagonists” (Heptares Therapeutics Limited, priority 2012, dated 2019)

Target: T1, human Orexin-2 receptor (Homo sapiens, UniProt O43614)
T1 construct: expressed in transfected cells; host or cells: HEK293 cells (transient transfection, Genejuice); membranes
T1 sequence (O43614 1-444): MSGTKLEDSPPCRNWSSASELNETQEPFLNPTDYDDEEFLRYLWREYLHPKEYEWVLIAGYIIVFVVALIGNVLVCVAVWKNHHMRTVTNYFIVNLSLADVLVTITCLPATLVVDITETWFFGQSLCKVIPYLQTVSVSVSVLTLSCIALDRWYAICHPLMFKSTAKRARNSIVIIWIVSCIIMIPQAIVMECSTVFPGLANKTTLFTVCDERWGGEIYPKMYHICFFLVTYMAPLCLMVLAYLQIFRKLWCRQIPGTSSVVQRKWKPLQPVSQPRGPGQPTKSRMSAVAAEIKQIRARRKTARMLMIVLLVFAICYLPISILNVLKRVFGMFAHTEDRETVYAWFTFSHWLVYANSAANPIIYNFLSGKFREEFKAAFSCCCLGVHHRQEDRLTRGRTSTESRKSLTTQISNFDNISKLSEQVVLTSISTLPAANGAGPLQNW
Test: 3H-EMPA radioligand binding assay
Conditions: 3H-EMPA displacement, membranes of HEK293 cells transfected with human Orexin-2 receptor; KI by Cheng-Prussoff; read-out: OX2 pKi ave (converted)
Method: cDNA encoding the human Orexin-2 receptor was transfected into HEK293 cells using the transfection reagent Genejuice (Novagen). Forty-eight hours after transfection, cells were harvested and washed twice with ice cold phosphate-buffered saline. The pellet was resuspended in ice-cold buffer containing 20 mM Tris-HCl, pH 7.4, 1 mM EDTA and homogenised with an Ultraturax for 30 s at maximum speed. After centrifugation at 48,000 g for 30 min at 4° C., the pellet was resuspended and spun again. The final pellet was resuspended and frozen at −80° C. before use. Protein concentration was determined using the BCA protein assay method.
^3H-EMPA Radioligand Binding Assay
At the end of the incubation, membranes were filtered onto a unifilter, a 96-well white microplate with bonded GF/B filter pre-incubated with 0.5% polyethylenimine, with a Tomtec cell harvester and washed 4 times with distilled water. […] Radioactivity on the filter was counted (1 min) on a microbeta counter after addition of 50 µL of scintillation fluid. […] IC50 values were derived from the inhibition curve and the equilibrium dissociation constant (KI) values were calculated using the Cheng-Prussoff equation.

| Compound | Ki [nM] |
| --- | --- |
| COc1ccc(N2C(=O)N(Cc3ccc4c(c3)OCO4)c3ccccc3S2(=O)=O)cc1OC [Example 1, 4-(1,3-benzodioxol-5-ylmethyl)-2-(3,4-dimethoxyphenyl)-2H-1,2,4-benzothiadiazin-3(4H)-one 1,1-dioxide] | 316 |
| COc1ccc(CN2C(=O)N(c3ccc(OC)c(OC)c3)S(=O)(=O)c3ccccc32)cc1F [Example 2, 2-(3,4-dimethoxyphenyl)-4-(3-fluoro-4-methoxybenzyl)-2H-1,2,4-benzothiadiazin-3(4H)-one 1,1-dioxide] | 141 |
| COc1ccc(N2C(=O)N(Cc3cccc(C#N)c3)c3ccccc3S2(=O)=O)cc1OC [Example 4, 3-{[2-(3,4-dimethoxyphenyl)-1,1-dioxido-3-oxo-2,3-dihydro-4H-1,2,4-benzothiadiazin-4-yl]methyl}benzonitrile] | 355 |
| COc1ccc(N2C(=O)N(Cc3ccccc3)c3ccccc3S2(=O)=O)cc1OC [Example 5, 4-benzyl-2-(3,4-dimethoxyphenyl)-2H-1,2,4-benzothiadiazin-3(4H)-one 1,1-dioxide] | 89.1 |
| COc1ccc(N2C(=O)N(Cc3ccc(C)cc3)c3ccccc3S2(=O)=O)cc1OC [Example 7, 2-(3,4-dimethoxyphenyl)-4-(4-methylbenzyl)-2H-1,2,4-benzothiadiazin-3(4H)-one 1,1-dioxide] | 37.2 |
| COc1ccc(N2C(=O)N(Cc3ccc(F)cc3)c3ccccc3S2(=O)=O)cc1OC [Example 8, 2-(3,4-dimethoxyphenyl)-4-(4-fluorobenzyl)-2H-1,2,4-benzothiadiazin-3(4H)-one 1,1-dioxide] | 56.2 |
| COc1cccc(N2C(=O)N(Cc3ccc(OC)c(F)c3)c3ccccc3S2(=O)=O)c1 [Example 10, 4-(3-fluoro-4-methoxybenzyl)-2-(3-methoxyphenyl)-2H-1,2,4-benzothiadiazin-3(4H)-one 1,1-dioxide] | 117 |
| CCc1cccc(N2C(=O)N(Cc3ccc(OC)c(F)c3)c3ccccc3S2(=O)=O)c1 [Example 11, 2-(3-ethylphenyl)-4-(3-fluoro-4-methoxybenzyl)-2H-1,2,4-benzothiadiazin-3(4H)-one 1,1-dioxide] | 47.9 |
| COc1cccc(N2C(=O)N(Cc3ccccc3F)c3ccccc3S2(=O)=O)c1 [Example 14, 4-(2-fluorobenzyl)-2-(3-methoxyphenyl)-2H-1,2,4-benzothiadiazin-3(4H)-one 1,1-dioxide] | 200 |
| COc1cc(OC)cc(N2C(=O)N(Cc3ccccc3Cl)c3ccccc3S2(=O)=O)c1 [Example 16, 4-(2-chlorobenzyl)-2-(3,5-dimethoxyphenyl)-2H-1,2,4-benzothiadiazin-3(4H)-one 1,1-dioxide] | 31.6 |
| COC(=O)c1ccc(OC)c(CN2C(=O)N(c3cc(OC)cc(OC)c3)S(=O)(=O)c3ccccc32)c1 [Example 17, methyl 3-{[2-(3,5-dimethoxyphenyl)-1,1-dioxido-3-oxo-2,3-dihydro-4H-1,2,4-benzothiadiazin-4-yl]methyl}-4-methoxybenzoate] | 13.5 |
| COc1ccc(N2C(=O)N(Cc3c(F)cccc3Cl)c3ccccc3S2(=O)=O)cc1OC [Example 20, 4-(2-chloro-6-fluorobenzyl)-2-(3,4-dimethoxyphenyl)-2H-1,2,4-benzothiadiazin-3(4H)-one 1,1-dioxide] | 0.741 |
| COc1ccc(N2C(=O)N(Cc3ccc(F)cc3Cl)c3ccccc3S2(=O)=O)cc1OC [Example 21, 4-(2-chloro-4-fluorobenzyl)-2-(3,4-dimethoxyphenyl)-2H-1,2,4-benzothiadiazin-3(4H)-one 1,1-dioxide] | 23.4 |
| CSc1cccc(N2C(=O)N(Cc3ccccc3F)c3ccccc3S2(=O)=O)c1 [Example 23, 4-(2-fluorobenzyl)-2-[3-(methylsulfanyl)phenyl]-2H-1,2,4-benzothiadiazin-3(4H)-one 1,1-dioxide] | 20.9 |
| O=C1N(Cc2c(F)cccc2Cl)c2ccccc2S(=O)(=O)N1c1ccccc1 [Example 26, 4-(2-chloro-6-fluorobenzyl)-2-phenyl-2H-1,2,4-benzothiadiazin-3(4H)-one 1,1-dioxide] | 79.4 |
| Cc1cc(C)cc(N2C(=O)N(Cc3c(F)cccc3Cl)c3ccccc3S2(=O)=O)c1 [Example 27, 4-(2-chloro-6-fluorobenzyl)-2-(3,5-dimethylphenyl)-2H-1,2,4-benzothiadiazin-3(4H)-one 1,1-dioxide] | 0.631 |
| Cc1ccc(N2C(=O)N(Cc3c(F)cccc3Cl)c3ccccc3S2(=O)=O)cc1 [Example 28, 4-(2-chloro-6-fluorobenzyl)-2-(4-methylphenyl)-2H-1,2,4-benzothiadiazin-3(4H)-one 1,1-dioxide] | 5.62 |
| CC(=O)c1ccc(N2C(=O)N(Cc3c(F)cccc3Cl)c3ccccc3S2(=O)=O)cc1 [Example 30, 2-(4-acetylphenyl)-4-(2-chloro-6-fluorobenzyl)-2H-1,2,4-benzothiadiazin-3(4H)-one 1,1-dioxide] | 20 |
| Cc1cccc(N2C(=O)N(Cc3c(F)cccc3Cl)c3ccccc3S2(=O)=O)c1 [Example 31, 4-(2-chloro-6-fluorobenzyl)-2-(3-methylphenyl)-2H-1,2,4-benzothiadiazin-3(4H)-one 1,1-dioxide] | 10.5 |

Continued, values first:

| Ki [nM] | Compound |
| --- | --- |
| 447 | COc1cccc(CN2C(=O)N(c3cc(OC)cc(OC)c3)S(=O)(=O)c3ccccc32)c1 [Example 3, 2-(3,5-dimethoxyphenyl)-4-(3-methoxybenzyl)-2H-1,2,4-benzothiadiazin-3(4H)-one 1,1-dioxide] |
| 468 | COc1cc(OC)cc(N2C(=O)N(Cc3cccc(C)c3)c3ccccc3S2(=O)=O)c1 [Example 6, 2-(3,5-dimethoxyphenyl)-4-(3-methylbenzyl)-2H-1,2,4-benzothiadiazin-3(4H)-one 1,1-dioxide] |
| 35.5 | CSc1cccc(N2C(=O)N(Cc3cccc(Br)c3)c3ccccc3S2(=O)=O)c1 [Example 9, 4-(3-bromobenzyl)-2-[3-(methylsulfanyl)phenyl]-2H-1,2,4-benzothiadiazin-3(4H)-one 1,1-dioxide] |
| 34.7 | Cc1ccc(N2C(=O)N(Cc3cccc(F)c3)c3ccccc3S2(=O)=O)cc1Cl [Example 12, 4-(3-fluorobenzyl)-2-(3-chloro-4-methylphenyl)-2H-1,2,4-benzothiadiazin-3(4H)-one 1,1-dioxide] |
| 26.9 | COc1cc(OC)cc(N2C(=O)N(Cc3ccccc3F)c3ccccc3S2(=O)=O)c1 [Example 13, 2-(3,5-dimethoxyphenyl)-4-(2-fluorobenzyl)-2H-1,2,4-benzothiadiazin-3(4H)-one 1,1-dioxide] |
| 29.5 | COc1cc(OC)cc(N2C(=O)N(Cc3ccccc3C)c3ccccc3S2(=O)=O)c1 [Example 15, 2-(3,5-dimethoxyphenyl)-4-(2-methylbenzyl)-2H-1,2,4-benzothiadiazin-3(4H)-one 1,1-dioxide] |
| 14.8 | COc1ccc(N2C(=O)N(Cc3ccccc3C)c3ccccc3S2(=O)=O)cc1OC [Example 18, 2-(3,4-dimethoxyphenyl)-4-(2-methylbenzyl)-2H-1,2,4-benzothiadiazin-3(4H)-one 1,1-dioxide] |
| 18.6 | COc1ccc(N2C(=O)N(Cc3ccccc3Cl)c3ccccc3S2(=O)=O)cc1OC [Example 19, 4-(2-chlorobenzyl)-2-(3,4-dimethoxyphenyl)-2H-1,2,4-benzothiadiazin-3(4H)-one 1,1-dioxide] |
| 23.4 | CSc1cccc(N2C(=O)N(Cc3ccccc3Cl)c3ccccc3S2(=O)=O)c1 [Example 22, 4-(2-chlorobenzyl)-2-[3-(methylsulfanyl)phenyl]-2H-1,2,4-benzothiadiazin-3(4H)-one 1,1-dioxide] |
| 7.08 | O=C1N(Cc2c(F)cccc2Cl)c2ccccc2S(=O)(=O)N1c1ccc(Cl)cc1 [Example 24, 4-(2-chloro-6-fluorobenzyl)-2-(4-chlorophenyl)-2H-1,2,4-benzothiadiazin-3(4H)-one 1,1-dioxide] |
| 2.51 | Cc1ccc(N2C(=O)N(Cc3c(F)cccc3Cl)c3ccccc3S2(=O)=O)cc1Cl [Example 25, 4-(2-chloro-6-fluorobenzyl)-2-(3-chloro-4-methylphenyl)-2H-1,2,4-benzothiadiazin-3(4H)-one 1,1-dioxide] |
| 31.6 | CCOc1ccc(N2C(=O)N(Cc3c(F)cccc3Cl)c3ccccc3S2(=O)=O)cc1 [Example 29, 4-(2-chloro-6-fluorobenzyl)-2-(4-ethoxyphenyl)-2H-1,2,4-benzothiadiazin-3(4H)-one 1,1-dioxide] |
| 28.2 | Cc1ccc(C)c(N2C(=O)N(Cc3c(F)cccc3Cl)c3ccccc3S2(=O)=O)c1 [Example 32, 4-(2-chloro-6-fluorobenzyl)-2-(2,5-dimethylphenyl)-2H-1,2,4-benzothiadiazin-3(4H)-one 1,1-dioxide] |
| 28.2 | CCc1ccccc1N1C(=O)N(Cc2c(F)cccc2Cl)c2ccccc2S1(=O)=O [Example 33, 4-(2-chloro-6-fluorobenzyl)-2-(2-ethylphenyl)-2H-1,2,4-benzothiadiazin-3(4H)-one 1,1-dioxide] |
